From patent US9499493B2, “2,4-pyrimidinediamine compounds and their uses” (Rigel Pharmaceuticals, Inc., priority 2002, dated 2016) come the findings set out here.

Some results are limits rather than exact numbers.

Assay [1] relates to cultured human mast cells (CHMC). The experiment in a line: CHMC low cell density ionomycin activation: tryptase assay. The assay is classed as cell-based.
Assay [2] has the same test system. Nature of the assay: CHMC low cell density IgE activation: tryptase assay. The assay is classed as cell-based. Particulars: anti-IgE. In a few lines:
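Cells pelleted, taken up in warm MT, plated at 1000-1500/well, held 1 hr 37° C. Anti-IgE added, 30 min 37° C. Plates spun; supernatant mixed with tryptase substrate, 30 min RT.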

In the case of `CCOC(=O)c1cnc(Nc2ccc3cn[nH]c3c2)nc1Nc1ccc2cn[nH]c2c1` [R926320, N2,N4-Bis(3-indazol-6-yl)-5-ethoxycarbonyl-2,4-pyrimidinediamine], the IC50 in assay [1] and in assay [2] was over 10 µM throughout.
With `CCOC(=O)c1cnc(Nc2ccc(OCC(=O)OC)cc2)nc1Nc1ccc(OCC(=O)O)cc1` [R926583, N4-(4-Carboxymethyleneoxyphenyl)-5-ethoxycarbonyl-N2-(4-methoxycarbonylmethyleneoxyphenyl)-2,4-pyrimidinediamine], the IC50 in assay [1] and in assay [2] was over 10 µM throughout.
Turning to `CCOC(=O)CNc1cccc(Nc2ncc(F)c(Nc3cccc(NCCO)c3)n2)c1` [R950229, N2-(Ethoxycarbonylmethyleneaminophenyl)-5-fluoro-N4-[3-(2-hydroxyethylamino)phenyl]-2,4-pyrimidinediamine], the half-inhibitory concentration (IC50) (as a rule, the concentration that inhibits the measured activity by half) in assay [1] was over 10 µM; in assay [2], 0.98 µM.
`O=C(COc1cccc(Nc2ncc(F)c(Nc3ccc4c(c3)OCCO4)n2)c1)N1CCNCC1` [R926503, N4-(3,4-Ethylenedioxyphenyl)-5-fluoro-N2-[3-(N-piperazino)carbonylmethyleneoxyphenyl]-2,4-pyrimidinediamine]: the IC50 in assay [1] is over 10 µM; in assay [2], 0.452 µM.
On to `COC(=O)COc1ccc(Nc2nc(Nc3ccc(OCC(N)=O)cc3)ncc2F)cc1` [R945060, N2-(4-Aminocarbonylmethyleneoxyphenyl)-5-fluoro-N4-(4-methoxycarbonylmethyleneoxyphenyl)-2,4-pyrimidinediamine], for which the IC50 was over 10 µM in assay [1] and 0.938 µM in assay [2].
Take `Cc1nc(COc2cccc(Nc3nc(Nc4ccc5c(c4)OCCO5)ncc3F)c2)no1` [R945137, N2-(3,4-Ethylenedioxyphenyl)-5-fluoro-N4-[3-(5-methyl-1,2,4-oxadiazol-3-yl)methyleneoxyphenyl]-2,4-pyrimidinediamine]: the IC50 in assay [1] is over 10 µM; in assay [2] it was 1.65 µM.
On to `CCOC(=O)CSc1ccc(Nc2ncc(F)c(Nc3ccc4c(c3)OCCO4)n2)cn1` [R926727, N2-[2-(Ethoxycarbonylmethylenethio)pyridin-5-yl]-N4-(3,4-ethylenedioxyphenyl)-5-fluoro-2,4-pyrimidinediamine], for which the IC50 in assay [1] is over 10 µM; in assay [2], 0.387 µM.
With `Cc1nc(COc2cccc(Nc3nc(Nc4cccc(O)c4)ncc3F)c2)no1` [R945132, 5-Fluoro-N2-(3-hydroxyphenyl)-N4-[3-(5-methyl-1,2,4-oxadiazol-3-yl)methyleneoxyphenyl]-2,4-pyrimidinediamine], the IC50 in assay [1] amounted to 8.77 µM; in assay [2], 0.571 µM.
As to `COC(=O)Cn1ncc2ccc(Nc3ncc(F)c(Nc4ccc5cnn(CC(=O)OC)c5c4)n3)cc21` [R935205, N2,N4-Bis[1-(methoxycarbonyl)methyl-indazoline-6-yl]-5-fluoro-2,4-pyrimidinediamine], the IC50 was over 10 µM in assay [1] and 2.96 µM in assay [2].
On to `COC(=O)c1cc2cc(Nc3nc(Nc4ccc(OCc5nc(-c6ccccc6)no5)cc4)ncc3F)ccc2o1` [R935137, 5-Fluoro-N4-(2-methoxycarbonylbenzofura-5-yl)-N2-[4-(3-phenyl-1,2,4-oxadiazol-5-yl)methyleneoxyphenyl]-2,4-pyrimidinediamine], for which the IC50 in assay [1] was over 10 µM; in assay [2], 10 µM.
`CCOC(=O)CCn1ncc2ccc(Nc3nc(Nc4ccc5oc(C(=O)OC)cc5c4)ncc3F)cc21` [R935295, N4-[1-(2-Ethoxycarbonylethyl)indazoline-6-yl]-5-fluoro-N2-(2-methoxycarbonylbenzofur-5-yl)-2,4-pyrimidinediamine]: the results for the IC50 in assay [1] and in assay [2] were over 10 µM and 1.94 µM, respectively.
`CNC(=O)COc1cccc(Nc2ncc(F)c(Nc3ccc(OC(F)(F)F)cc3)n2)c1` [R926879, 5-Fluoro-N2-[3-(N-methylamino)carbonylmethyleneoxyphenyl]-N4-[4-trifluoromethoxyphenyl]-2,4-pyrimidinediamine]: the half-maximal inhibitory concentration (IC50) was over 10 µM in assay [1] and 0.397 µM in assay [2].
